# Assay results taken from patent US11524960B2, “Heterobicyclic inhibitors of MAT2A and methods of use for treating cancer” (AGIOS PHARMACEUTICALS, INC., priority 2018, dated 2022).
# pIC50: −log10 of the molar value.
# Experiments:
# [1] = test system: SAM in HCT116 human colon carcinoma cell line engineered to delete the MTAP gene (MTAP −/−); assay: Cellular assay of target engagement (SAM) by LC-MS/MS; assay type: cell-based; conditions: Homo sapiens, HCT-116, 72 h, IC50 score, read-out: Cell 72 h SAM Inhibition (MTAP −/−; Example 276)
# Procedure: Measurement of MAT2A activity in cells was made by direct quantitation of the abundance of the product of its enzymatic activity, SAM. Cancer cells were treated with candidate MAT2A inhibitors for a suitable incubation period, and the cells were then lysed using a reagent which quenched any further enzyme activity. Soluble metabolites including SAM were collected and SAM itself was directly measured from the lysate using quantitative LC-MS/MS.
# A typical assay was performed using an HCT116 human colon carcinoma cell line which was genetically engineered to delete the MTAP gene (commercially available from Horizon Discovery). This cell line was utilized because it was determined that loss of the MTAP gene predicts sensitivity to MAT2A inhibitors. Cells were plated in 96-well dishes at appropriate cell density. Following 24 hours, cells were then treated with the candidate MAT2A inhibitor. Prior to addition to cells, the compound was first serially diluted in 100% DMSO, typically as a 3-fold serial dilution starting at 500× top dose with 10 dose points including DMSO only control. Compound was then transferred to a working stock plate in cell culture media by adding 5 μl of compound in DMSO to 495 μl of cell culture media. This working stock was then added to cells via a further 5-fold dilution, by adding 25 μl of working stock to 100 μl of cells in culture media. Following compound addition, cells were incubated at 37° C./5% CO2 for 72 hrs.
# To quantitate SAM levels following compound treatment, cells were gently washed once in Ammonium Carbonate buffer (75 mM at pH 7.4), placed on dry ice, and lysed with metabolite extraction buffer (80% cold methanol and 20% water (v/v) with acetic acid at 1 M final concentration with 200 ng/mL deuterated d3-SAM as internal control). Following centrifugation at 4° C. at 3,200 rpm for 30 minutes, the supernatant was collected and stored at −80° C. until analysis by Liquid Chromatography with tandem Mass Spectrometry (LC-MS/MS). LC-MS/MS analysis was performed using an API6500 Mass Spectrometer (Sciex, Framingham, Mass., USA) operating in positive ion spray mode and equipped with a Waters UPLC Acquity (Waters, Milford, Mass., USA) BEH Amide column. Multiple Reaction Monitoring data was acquired for SAM and the d3-SAM standard, using a mass transition pair at m/z 399.2→250.1 and 402.2→250.1, respectively. In a typical LC-MS/MS analysis, the initial flow rate was 0.5 ml/min of 25% mobile phase A (acetonitrile and water at 5:95 (v/v) with 1% formic acid and 10 mM ammonium acetate) and 75% mobile phase B (acetonitrile and water at 95:5 (v/v) with 1% formic acid and 10 mM ammonium acetate), 0.2-0.5 minutes with 75%-35% mobile phase B, 25%-65% mobile phase A, at 0.5 min 65% mobile phase A and 35% mobile phase B, 1.0-1.1 minutes with 35%-75% mobile phase B, 65%-25% mobile phase A, at 1.1 min 25% mobile phase A and 75% mobile phase B with a total run time of 1.5 minutes.
# HCT116 MTAP−/− = assay: Inhibition of cellular proliferation (Cell Titer Glo), HCT116 MTAP−/−; assay type: cell-based, human; conditions: Homo sapiens, HCT-116, 96 h, 4 days, IC50 score, read-out: 4 Day Relative Growth Inhibition (MTAP −/−; Example 277)
# Procedure: (§1) Test compound impact on cancer cell growth was assessed by treating cancer cells with compound for 4 days and then measuring proliferation using an ATP-based cell proliferation readout (Cell Titer Glo, Promega Corporation).
# (§2) In a typical assay an isogenic pair of HCT116 human colon carcinoma cell lines which vary only in MTAP deletion status (HCT116 MTAP+/+ and HCT116 MTAP−/−) were plated in 96-well dishes at appropriate cell density. Following 24 hours, cells were then treated with the candidate MAT2A inhibitor. Prior to addition to cells, the compound was first serially diluted in 100% DMSO, typically as a 3-fold serial dilution starting at 500× top dose with 10 dose points including DMSO only control. Compound was then transferred to a working stock plate in cell culture media by adding 5 μl of compound in DMSO to 495 μl of cell culture media. This working stock was then added to cells via a further 5-fold dilution, by adding 25 μl of working stock to 100 μl of cells in culture media. Following compound addition, cells were incubated at 37° C./5% C02 for 4 days.
# (§3) To measure inhibition of cellular proliferation, cells were allowed to equilibrate to room temperature for 30 minutes, and were then treated with 125 μl of Cell Titer Glo reagent. The plate was then covered with aluminum foil and shaken for 15 minutes to ensure complete mixing and full cell lysis. Luminescent signal was then measured using a plate-based luminometer Veritas version 1.9.2 using ATP standard curve to confirm assay reproducibility from run to run. This luminescence measure was converted to a proliferation index by subtracting from each data point the ATP luminescence signal measured from a bank (no cells) well and dividing by the ATP luminescence signal measured in 0.2% DMSO control well adjusted for signal in blank well. Compound activity was then represented as a percentage change in proliferation relative to a within-plate DMSO control against log10 of compound concentration in molar (M) units.
# MAT2A homodimer = target: T1, MAT2A homodimer (Homo sapiens, UniProt P31153); assay: Biochemical assay: inhibition of MAT2A (phosphate release, PiColorLock Gold); conditions: MAT2A IC50 score; read-out: Enzyme Inhibition (Example 275)
# T1 construct: inferred from Ni sepharose purification and imidazole elution; made in house; host or cells: Sf9 insect cells, recombinant baculovirus (Bac to Bac, pFASTBAC1)
# Procedure: Mat2A protein was expressed by recombinant baculovirus in SF9 infected cells using the Bac to Bac system cloned into the pFASTBAC1 vector (Invitrogen, Carlsbad, Calif.). Recombinant MAT2A was isolated from the cell lysate of 150 g of infected cells using HP Ni sepharose column chromatography. Recombinant MAT2A homodimer was eluted with 250 and 500 mM imidazole, and fractions containing MAT2A were identified by sodium dodecyl sulfate polyacrylamide gel electrophoresis and pooled.
# For determination of the inhibitory potency of compounds against the MAT2A homodimer, protein was diluted to […] in assay buffer (50 mM Tris, pH 8.0, 50 mM KCl, 15 mM MgCl2, 0.3 mM EDTA, 0.005% [w/v] bovine serum albumin [BSA]). Test compound was prepared in 100% dimethyl sulfoxide (DMSO) at 50× the desired final concentration. […] of compound dilution was added to 40 μL of enzyme dilution and the mixture was allowed to equilibrate for 60 minutes at 25° C. The enzymatic assay was initiated by the addition of 10 μL of substrate mix (500 μM ATP, pH 7.0, 400 μM L-methionine in 1× assay buffer), and the mixture was incubated for a further 60 minutes at 25° C. The reaction was halted and the liberated phosphate released by the enzyme in stoichiometric amounts by the production of S-adenosyl methionine (SAM) was measured using the PiColorLock Gold kit (Innova Biosciences, UK). Absolute product amounts were determined by comparison to a standard curve of potassium phosphate buffer, pH 8.0.
# HCT116 MTAP+/+ = assay: Inhibition of cellular proliferation (Cell Titer Glo), HCT116 MTAP+/+; assay type: cell-based, human; conditions: Homo sapiens, HCT-116, 96 h, 4 days, IC50 score, read-out: 4 Day Relative Growth Inhibition (MTAP +/+; Example 277)
# Procedure: as §1, §2, §3
# T1 sequence (P31153 whole entry): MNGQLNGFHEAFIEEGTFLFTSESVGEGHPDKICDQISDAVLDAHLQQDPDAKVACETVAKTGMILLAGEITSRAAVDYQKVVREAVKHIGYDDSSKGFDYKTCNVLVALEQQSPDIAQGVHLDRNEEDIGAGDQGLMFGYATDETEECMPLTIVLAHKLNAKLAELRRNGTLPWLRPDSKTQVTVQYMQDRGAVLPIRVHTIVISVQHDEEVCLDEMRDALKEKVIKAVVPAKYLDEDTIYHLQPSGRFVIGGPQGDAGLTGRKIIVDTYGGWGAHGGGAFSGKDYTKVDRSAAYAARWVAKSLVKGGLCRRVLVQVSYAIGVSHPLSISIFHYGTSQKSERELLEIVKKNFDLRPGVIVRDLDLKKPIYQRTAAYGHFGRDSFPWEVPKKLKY
Structure (SMILES),pIC50 [1],pIC50 (HCT116 MTAP−/−),pIC50 (MAT2A homodimer),pIC50 (HCT116 MTAP+/+)
"COc1ccc(N2Cc3cnc(NCC(F)(F)F)nc3C3(CCC(O)CC3)C2=O)cc1 (stereo not shown) [Example 116, 4-hydroxy-6′-(4-methoxyphenyl)-2′-((2,2,2-trifluoroethyl)amino)-5′H-spiro[cyclohexane-1,8′-pyrido[4,3-d]pyrimidin]-7′(6′H)-one]",–,–,5.00 to 6.00,–
"O=C1N(c2ccc3nc[nH]c3c2)Cc2cnc(NCC3CC3)nc2C12CCN(Cc1cc[nH]n1)C2 (stereo not shown) [Example 109, 1′-((H-pyrazol-3-yl)methyl)-6-(1H-benzo[d]imidazol-6-yl)-2-((cyclopropylmethyl)amino)-5H-spiro[pyrido[4,3-d]pyrimidine-8,3′-pyrrolidin]-7(6H)-one]",–,–,6.00 to 7.00,–
"O=c1c(-c2ccc(OC(F)F)cc2)c2nc(OCC(F)(F)F)ncc2cn1-c1ccc2nc[nH]c2c1 [Example 266, 6-(H-benzo[d]imidazol-6-yl)-8-(4-(difluoromethoxy)phenyl)-2-(2,2,2-trifluoroethoxy)pyrido[4,3-d]pyrimidin-7(6H)-one]",–,–,6.00 to 7.00,–
"COc1ccc(-n2cc3cnc(NCC(F)(F)F)nc3c(-c3ccc(C4CCC4)cc3)c2=O)cc1 [Example 199, 8-(4-cyclobutylphenyl)-6-(4-methoxyphenyl)-2-((2,2,2-trifluoroethyl)amino)pyrido[4,3-d]pyrimidin-7(6H)-one]",–,–,5.00 to 6.00,–
"O=c1c(-c2ccc(Cl)cc2)c2nc(NCC(F)(F)F)ncc2cn1-c1ccc2nncn2c1 [Example 136, 6-([1,2,4]triazolo[4,3-a]pyridin-6-yl)-8-(4-chlorophenyl)-2-((2,2,2-trifluoroethyl)amino)pyrido[4,3-d]pyrimidin-7(6H)-one]",–,–,6.00 to 7.00,–
"Cn1cc(-n2cc3cnc(NCC(F)(F)F)nc3c(-c3ccc(Cl)cc3)c2=O)ccc1=O [Example 140, 8-(4-chlorophenyl)-6-(1-methyl-6-oxo-1,6-dihydropyridin-3-yl)-2-((2,2,2-trifluoroethyl)amino)pyrido[4,3-d]pyrimidin-7(6H)-one]",–,–,6.00 to 7.00,–
"O=C1N(c2cnoc2)Cc2cnc(NCC3CC3)nc2C12CCN(Cc1cscn1)C2 (stereo not shown) [Example 107, 2-((cyclopropylmethyl)amino)-6-(isoxazol-4-yl)-1′-(thiazol-4-ylmethyl)-5H-spiro[pyrido[4,3-d]pyrimidine-8,3′-pyrrolidin]-7(6H)-one]",–,–,5.00 to 6.00,–

# The remaining lines, values ahead:
pIC50 [1],pIC50 (HCT116 MTAP−/−),pIC50 (MAT2A homodimer),pIC50 (HCT116 MTAP+/+),Structure (SMILES)
> 7.00,> 7.00,> 7.00,5.00 to 7.00,"CCOc1ccc2cn(-c3ccc4ncn(C)c4c3)c(=O)c(-c3ccc(Cl)cc3)c2n1 [Example 248, 8-(4-chlorophenyl)-2-ethoxy-6-(1-methyl-1H-benzo[d]imidazol-6-yl)-1,6-naphthyridin-7(6H)-one]"
> 7.00,> 7.00,> 7.00,5.00 to 7.00,"CCOc1ccc2cn(-c3ccc4nn(C)cc4c3)c(=O)c(-c3ccc(C(F)F)nc3)c2n1 [Example 216, 8-(6-(difluoromethyl)pyridin-3-yl)-2-ethoxy-6-(2-methyl-2H-indazol-5-yl)-1,6-naphthyridin-7(6H)-one]"
> 7.00,> 7.00,> 7.00,5.00 to 7.00,"CCOc1ccc2cn(-c3ccc4nn(C)cc4c3)c(=O)c(-c3ccc(OC(F)F)cc3)c2n1 [Example 251, 8-(4-(difluoromethoxy)phenyl)-2-ethoxy-6-(2-methyl-2H-indazol-5-yl)-1,6-naphthyridin-7(6H)-one]"
> 7.00,> 7.00,> 7.00,5.00 to 7.00,[2H]C([2H])([2H])Oc1ccc(-c2c(=O)n(-c3ccc4nn(C)cc4c3)cc3ccc(OCC)nc23)cc1 [Example 117-A]
> 7.00,> 7.00,> 7.00,5.00 to 7.00,"Cn1cc2cc(-n3cc4ncc(OCC(F)F)nc4c(-c4ccc(OC(F)F)cc4)c3=O)ccc2n1 [Example 139-A, 2-(2,2-difluoroethoxy)-8-(4-(difluoromethoxy)phenyl)-6-(2-methyl-2H-indazol-5-yl)pyrido[3,4-b]pyrazin-7(6H)-one]"
> 7.00,> 7.00,> 7.00,–,CCOc1ccc2cn(-c3ccc4nn(C)cc4c3)c(=O)c(-c3ccc(OC(F)(F)F)nc3)c2n1 [Example 133-A]
–,–,> 7.00,–,"Cn1cc2cc(-n3cc4cnc(NC5CCC5)nc4c(-c4ccc(OC(F)F)cc4)c3=O)ccc2n1 [Example 174, 2-(cyclobutylamino)-8-(4-(difluoromethoxy)phenyl)-6-(2-methyl-2H-indazol-5-yl)pyrido[4,3-d]pyrimidin-7(6H)-one]"
–,–,> 7.00,–,"CNc1ncc2cn(-c3ccc4ncccc4c3)c(=O)c(-c3ccc(OC(F)F)cc3)c2n1 [Example 184, 8-(4-(difluoromethoxy)phenyl)-2-(methylamino)-6-(quinolin-6-yl)pyrido[4,3-d]pyrimidin-7(6H)-one]"
–,–,6.00 to 7.00,–,"Cn1cc2cc(-n3cc4ccc(CS(C)(=O)=O)nc4c(-c4ccc(Cl)cc4)c3=O)ccc2n1 [Example 135-A, 8-(4-chlorophenyl)-6-(2-methyl-2H-indazol-5-yl)-2-((methylsulfonyl)methyl)-1,6-naphthyridin-7(6H)-one]"
–,–,> 7.00,–,"COc1ccc(-n2cc3cnc(NCC4CC4)nc3c(-c3ccc(Br)cc3)c2=O)cc1 [Example 190, 8-(4-bromophenyl)-2-((cyclopropylmethyl)amino)-6-(4-methoxyphenyl)pyrido[4,3-d]pyrimidin-7(6H)-one]"
